Laboratory results as given in patent US9376470B2, “Polypeptide having angiogenesis-inducing activity and antibacterial activity, and use thereof for medical purposes” (FunPep Inc., priority 2008, dated 2016).
Peptide text beside a SMILES is read from it.

Columns and labels:
in vitro = in vitro ADME, rat; settings: for half-life: rat serum, 37° C.
Protocol: Then, the stability of five polypeptides SR-1 to 5 in serum was evaluated.
In human serum (purchased from KAC Co., Ltd.), or in rat serum obtained by collecting blood from a rat, then leaving the collected blood to stand at room temperature followed by centrifugation, each of the peptides was dissolved so as to attain a final concentration of 500 μg/mL, and the obtained solutions were left to stand at 37° C. After leaving to stand for 10 min or 30 min or 60 min, these solutions were subjected to HPLC chromatogram analysis to detect peaks of the decomposition products, and calculate the ratio of the concentration of the peptides which remained in the solutions relative to the starting concentration. In addition, the half-lives of the peptides in serum were also calculated.
HPLC chromatogram analysis conditions are as follows.

[1] = tested on: Crl:CD (SD) rats, cut wound; experiment: Effect to heal cut wounds, rat cut-wound model; assay type: in vivo; settings: for wound closing tension: 10, 100 and 1000 μg/mL, 50 μL dropwise once a day, measured on day 6; for scars of cut wounds / cicatrization by visual observation, compared with the bFGF formulation: rat cut-wound model, data not shown
Protocol: Next, using rat cut-wound model, the effect of the five polypeptides SR-1 to 5 to heal cut wounds in vivo was evaluated. As described in Tetsuaki Yamaura et al. (Oyo Yakuri (Pharmacometrics) 22, 565-579 (1981)), the rat cut-wound model was produced and the wound closing tension was measured. That is, a cut wound of 30 to 36 mm was made on the back of Crl:CD (SD) rats (male, 7-week old, obtained from Charles River Laboratories Japan, Inc.) using a safety razor, and sutured at 3 points equally spaced. The day when this surgical treatment was applied was regarded as […] (day 0). […] Additions of 50 μL physiological saline were regarded as negative controls (Saline). […] The sutures were removed day 3, and the wound closing tension was measured on day 6.

[2] = tested on: human vascular endothelial cells and fibroblast cells (co-culture); experiment: Lumen formation with angiogenesis kit KZ-1000 (section 7); assay type: cell-based; settings: for The Area of Lumina (relative value, negative control as 100) / The Length of Lumina (relative value, negative control as 100): day 11
Protocol: Using an angiogenesis kit available from KURABO […] LTD. (Product No.: KZ-1000), lumen formation by the polypeptides was evaluated. Vascular endothelial growth factor A (VEGF-A) as a positive control, and polypeptide-free, unstimulated group as a negative control, were used.
Using a special medium for angiogenesis which was attached to the kit, each polypeptide was prepared such that the concentration thereof was respectively 0.5, 2.5 and 10 μg/mL. To a 24-well plate in which cells were plated (the cells were those obtained by co-culturing human vascular endothelial cells and fibroblast cells at an optimum concentration) which was attached to the kit, the special medium for angiogenesis containing each polypeptide was added, and the cells were cultured at 37° C. under 5% CO2. The medium was replaced with a medium containing the same additive on day 4, day 7 and day 9 of culture. On day 11 from the beginning of the culture, staining was performed using a kit for staining lumina (for CD31 antibody staining) according to the following procedure.
The media were removed, and washing was performed with Dulbecco's phosphate buffered saline (PBS(−)). Thereafter, ice-cooled 70% ethanol was added to the plate, and the cells were fixed. Each well was washed with a blocking solution (Dulbecco's phosphate buffered saline (PBS(−)) containing 1% BSA). To each well, 0.5 mL of the primary antibody for CD31 staining (mouse anti-human CD31 antibody) 4000-fold diluted with the blocking solution was added, and then the plate was incubated for 60 minutes at 37° C. After the completion of the incubation, each well was washed totally 3 times with 1 mL of the blocking solution. Then, 0.5 mL of the secondary antibody solution (goat anti-mouse IgG/alkaline phosphatase conjugate) 500-fold diluted with the blocking solution was added to each well. The plate was incubated for 60 minutes at 37° C., and thereafter each well was washed 3 times with 1 mL of distilled water. During that period, 2 tablets of BCIP/NBT were dissolved into distilled water, and the obtained solution was filtered through a filter having a pore size of […] to prepare a substrate solution. To each well, 0.5 mL of the prepared BCIP/NBT substrate solution was added, and the plate was incubated at 37° C. until the lumina turned to deep purple (typically for 5-10 minutes). After the completion of the incubation, each well was washed 3 times with 1 mL of distilled water. After washing, the washing solution was removed by aspiration, and the plate was left to stand and dry naturally. After drying, photographs of each well were taken under a microscope.
Each of the obtained images was quantified using an angiogenesis quantification software. The area and length of formed lumina observed in each visual field were measured on the basis of the scale of an angiogenesis quantification software available from KURABO […] LTD. (angiogenesis quantification software Ver 1.0), and evaluated on the basis of the ratio of the area or length of polypeptide-containing groups relative to the area or length of the negative control group.

SMILES | decomposition in rat serum (in vitro) | half-life (in vitro) [h] | remaining at 0.5 h, 500 μg/mL (in vitro; rat, serum) [%] | remaining at 1 h, 500 μg/mL (in vitro; rat, serum) [%] | wound closing tension [1] | scars of cut wounds / cicatrization by visual observation, compared with the bFGF formulation [1] | The Area of Lumina (relative value, negative control as 100) ([2]; polypeptide 0.5 μg/mL) | The Length of Lumina (relative value, negative control as 100) ([2]; polypeptide 0.5 μg/mL) | The Area of Lumina (relative value, negative control as 100) ([2]; polypeptide 10 μg/mL) | The Length of Lumina (relative value, negative control as 100) ([2]; polypeptide 10 μg/mL) | remaining at 10 min, 500 μg/mL (in vitro; rat, serum) [%] | ability to form lumina ([2]; 0.5, 2.5 and 10 μg/mL)
CC[C@H](C)[C@H](NC(=O)[C@H](CC(C)C)NC(=O)[C@@H](N)CCCCN)C(=O)N[C@@H](Cc1ccccc1)C(=O)N[C@@H](CC(C)C)C(=O)N[C@@H](Cc1c[nH]cn1)C(=O)N[C@@H](CCCNC(=N)N)C(=O)N[C@@H](CC(C)C)C(=O)N[C@@H](CCCCN)C(=O)N[C@@H](CCCNC(=N)N)C(=O)N[C@@H](CCSC)C(=O)N[C@@H](CCCNC(=N)N)C(=O)N[C@@H](CCCCN)C(=O)N[C@@H](CCCNC(=N)N)C(=O)N[C@@H](CC(C)C)C(=O)N[C@@H](CCCCN)C(=O)N[C@@H](CCCNC(=N)N)C(=O)N[C@@H](CCCCN)C(=O)N[C@@H](CC(C)C)C(=O)N[C@@H](CCCNC(=N)N)C(N)=O [SR-4] (H-KLIFLHRLKRMRKRLKRKLR-NH2; N-terminus assumed) | 35-55% | 1.58 | 95 | 64.5 | effect of increasing the wound closing tension | cicatrization was hardly observed | 90.5 | 97.0 | 96.2 | 96.4 |  | 
CSCC[C@H](NC(=O)[C@H](CCCNC(=N)N)NC(=O)[C@H](CCCCN)NC(=O)[C@H](CC(C)C)NC(=O)[C@H](CCCNC(=N)N)NC(=O)[C@H](Cc1c[nH]cn1)NC(=O)[C@H](CC(C)C)NC(=O)[C@H](Cc1ccccc1)NC(=O)[C@H](CCCNC(=N)N)NC(=O)[C@H](CC(C)C)NC(=O)[C@@H](N)CCC(=O)O)C(=O)N[C@@H](CCCNC(=N)N)C(=O)N[C@@H](CCCCN)C(=O)N[C@@H](CCCNC(=N)N)C(=O)N[C@@H](CC(C)C)C(=O)N[C@@H](CCCCN)C(=O)N[C@@H](CCCNC(=N)N)C(=O)N[C@@H](CCCCN)C(=O)N[C@@H](CC(C)C)C(=O)N[C@@H](CCCNC(=N)N)C(N)=O [SR-3] (H-ELRFLHRLKRMRKRLKRKLR-NH2; N-terminus assumed) | 35-55% | 1.12 |  | 44.4 | effect of increasing the wound closing tension | cicatrization was hardly observed | 100.8 | 101.9 | 118.0 | 122.6 | 53 | high ability to form lumina
